Values after ≈ are worked out from the molar mass of the structure shown. Like-named read-outs stand apart in the source and are kept apart here. Where a SMILES comes first, the peptide text is derived from it.
Assays:
[1] = tested on: S. aureus ATCC 29213; assay: Killing kinetics (time kill assay); assay type: cell-based, Staphylococcus aureus; conditions: MHB, 35°C, sampled 1-24 hours, n = 2
Description: The killing kinetics assay was conducted using mid-logarithmic phase cultures of E. coli ATCC 25922 and S. aureus ATCC 29213 in MHB. Cultures were adjusted to a 0.5 McFarland standard, diluted in MHB, and then 100µL was added to each culture tube containing 10mL pre-warmed MHB to give a final inoculum concentration of 5 x 10^5 CFU/mL. A sterility control of 100uL MHB, growth control (no cathelicidin), and vehicle control (DMSO) were also included. Furthermore, 10uL was immediately removed from the growth control tube, diluted 1/1000 in saline and 100µL plated onto MHA in duplicate to confirm inoculum density. To establish colony counts from 0 hours of cathelicidin treatment, 200µL was removed from each culture tube and serially diluted ten-fold in saline from 10^0 to […] in a total volume of 200µL. Then, 10µL of each dilution was spotted onto MHA in duplicate, which were incubated at 35°C for 24 hours.
All culture tubes were then incubated at 35°C static. At 1, 2, 4, 6, 8, 10, 12, and 24 hours post-cathelicidin treatment, 200µL was removed from each culture tube for dilution and plated on MHA as described above. […] Counts of duplicates were averaged, and the log10 CFU/mL graphed against time. This was used as input for one-way ANOVA (p < 0.05) followed by Dunnett’s post hoc test.

[2] = tested on: Pseudomonas aeruginosa clinical isolate - animal; assay: microbe, parasite or virus in culture; assay type: cell-based; conditions: clinical isolate - animal; read-out: MIC P. aeruginosa
Procedure, shortened: (§1)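 Each isolate was exposed to twofold peptide dilutions (final 64-0.125μg/mL) in Mueller Hinton broth, optionally supplemented with calcium and magnesium or 10% lysed horse blood. The MIC was taken as the lowest concentration lacking visible growth after 20–24 hours at 35°C.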

[3] = tested on: Escherichia coli ATCC 25922; assay: microbe, parasite or virus in culture; assay type: cell-based; conditions: ATCC 25922
Procedure, shortened: as §1

[4] = tested on: Staphylococcus aureus clinical isolate - animal; assay: microbe, parasite or virus in culture; assay type: cell-based; conditions: clinical isolate - animal
Procedure, shortened: as §1

[5] = tested on: Pseudomonas aeruginosa ATCC 27853; assay: microbe, parasite or virus in culture; assay type: cell-based; conditions: ATCC 27853; read-out: MIC P. aeruginosa ATCC
Procedure, shortened: as §1

[6] = tested on: Escherichia coli clinical isolate - animal; assay: microbe, parasite or virus in culture; assay type: cell-based; conditions: clinical isolate - animal
Procedure, shortened: as §1

[7] = tested on: Staphylococcus aureus ATCC 29213; assay: microbe, parasite or virus in culture; assay type: cell-based; conditions: ATCC 29213
Procedure, shortened: as §1

[8] = tested on: Staphylococcus aureus clinical isolate – animal, penicillin-resistant (PRSA); assay type: cell-based; conditions: clinical isolate – animal, penicillin-resistant (PRSA)
Procedure, shortened: (§2)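 Endpoint is visible-growth inhibition (MIC) after 35°C, 20–24 h incubation. Yeast medium was RPMI-1640 MOPS; bacterial medium was Mueller Hinton broth, with or without divalent cations and lysed horse blood. Final peptide range 64-0.125μg/mL.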

[9] = tested on: Staphylococcus aureus clinical isolate – animal, methicillin-resistant (MRSA); assay type: cell-based; conditions: clinical isolate – animal, methicillin-resistant
Procedure, shortened: as §2

[10] = tested on: Streptococcus agalactiae ATCC 12386; assay: microbe, parasite or virus in culture; assay type: cell-based; conditions: ATCC 12386; read-out: MIC S. agalactiae ATCC
Procedure, shortened: as §2

[11] = tested on: Streptococcus agalactiae Clinical isolate - animal; assay: microbe, parasite or virus in culture; assay type: cell-based; conditions: clinical isolate - animal
Procedure, shortened: as §2

[12] = tested on: Streptococcus pneumoniae ATCC 49619; assay: microbe, parasite or virus in culture; assay type: cell-based; conditions: ATCC 49619; read-out: MIC S. pneumoniae ATCC
Procedure, shortened: as §2

[13] = tested on: six bacteria (S. aureus, E. coli, P. aeruginosa; ATCC and clinical isolate); assay type: cell-based; conditions: synthesized mature peptide
Procedure, shortened: as §1

[14] = tested on: three fungi (Candida krusei, Candida parapsilosis, Candida albicans); assay: Antifungal screening, summary over the panel of fungi (broth microdilution); assay type: cell-based; conditions: synthesized mature peptide
Description: Antimicrobial testing of 78 cathelicidin MPs was performed in two phases as outlined in Figure 1 . In phase I, 40 peptides (27 extant and 13 ancestral) were selected for testing based on rank (outlined above) and similarity to published marsupial cathelicidins with known antimicrobial activity ([33], [41]–[43]). These peptides were tested against nine bacteria (Staphylococcus aureus ATCC 29213 and clinical isolate, Escherichia coli ATCC 25922 and clinical isolate, Pseudomonas aeruginosa ATCC 27853 and clinical isolate, Streptococcus agalactiae ATCC 12386 and clinical isolate, Streptococcus pneumoniae ATCC 49619) and three fungi (Candida krusei ATCC 6258, Candida parapsilosis ATCC 22019, and Candida albicans clinical isolate). Details regarding these strains are available in Supplementary Table 4 . The antimicrobial activity of cathelicidins was determined as the minimum inhibitory concentration (MIC), which was the lowest concentration of cathelicidin that prevented visible bacterial or fungal growth, relative to the negative control. […] Minimum bactericidal concentration (MBC) and/or minimum fungicidal concentration (MFC) was conducted to determine microbicidal versus static action. Activity against S. aureus ATCC, E. coli ATCC, and Pseudomonas aeruginosa ATCC 27853 was examined in the presence of divalent cations to determine the impact of inhibitors.
Antimicrobial activity was determined using a broth microdilution susceptibility assay in 96 well polypropylene plates according to Clinical Laboratory Standards Institute guidelines M07-A and M26A as described previously ([33], [42], [43]). The bacterial and fungal isolates from humans and animals used in this study are outlined in Supplementary Table 4 . Only yeasts were included in the panel of fungi as they have been used in the susceptibility testing of eutherian ([3], [81]–[83]) and other marsupial cathelicidins previously ([33], [42], [43]). Cathelicidin mature peptides were solubilized in DMSO and serially diluted in duplicate from 128-0.25μg/mL in a final volume of 100µL. For bacteria, cathelicidins were diluted in Mueller Hinton Broth (MHB) with or without 10% lysed horse blood, and with (MH II B) or without (MHB) calcium and magnesium cations. For fungi, cathelicidins were diluted in Roswell Park Memorial Institute medium (RPMI)-1640 MOPS. Ampicillin or tetracycline were included as a positive control for Gram-positive and -negative bacteria respectively, while amphotericin B was used for fungi. A media-only negative control and growth control (no cathelicidin) were also included on each plate. Bacteria were sub-cultured on Muller Hinton agar (MHA) or sheep blood agar (BA), and fungi on Sabouraud dextrose agar (SAB), 20–24 hours prior to the test. Colonies were suspended in saline, the concentration adjusted to a 0.5 McFarland standard, and then diluted in media to a concentration of 1.0 x 10^6 cells/mL. Then, 100μL was added to each well of the cathelicidin dilution plate, giving a final inoculum density of 5 x 10^5 CFU/mL and cathelicidin concentration of 64-0.125μg/mL. Colony counts were performed on MHA/BA/SAB to confirm inoculum density. All plates were incubated at 35°C for 20–24 hours, depending on the strain.
Colonies were counted and compared to the colony count of the starting inoculum.

[15] = antimicrobial screening Phase I, Y/N summary over bacteria tested, broth microdilution
[16] = antimicrobial screening Phase I, Y/N summary over fungi tested, broth microdilution

**Q.** Which “Number of hours to cause a significant reduction in log CFU/mL of S. aureus ATCC (p < 0.05)” value ([1]; 0.5x MIC) does the source give for CC[C@H](C)[C@H](NC(=O)[C@H](CCCCN)NC(=O)[C@H](CC(N)=O)NC(=O)[C@H](CC(C)C)NC(=O)CNC(=O)[C@H](CCC(N)=O)NC(=O)CNC(=O)[C@H](CC(C)C)NC(=O)[C@H](CCCCN)NC(=O)[C@H](CCSC)NC(=O)[C@H](Cc1c[nH]c2ccccc12)NC(=O)CNC(=O)[C@H](CCCCN)NC(=O)[C@H](CCCCN)NC(=O)[C@H](CCC(=O)O)NC(=O)[C@H](Cc1c[nH]cn1)NC(=O)[C@H](CCCNC(=N)N)NC(=O)[C@H](CCCCN)NC(=O)[C@@H](NC(=O)[C@@H](N)CCCCN)[C@@H](C)CC)C(=O)N[C@@H](CC(C)C)C(=O)N[C@@H](CCCCN)C(=O)N[C@@H](Cc1c[nH]cn1)C(=O)N[C@@H](Cc1ccccc1)C(=O)N[C@@H](CC(N)=O)C(=O)N[C@H](C(=O)N[C@@H](CC(=O)O)C(=O)N[C@@H](Cc1ccccc1)C(=O)N[C@@H](CS)C(=O)N[C@@H](CC(C)C)C(=O)N[C@@H](CC(N)=O)C(=O)N[C@@H](CS)C(=O)O)[C@@H](C)CC [LalaCath3] (H-KIKRHEKKGWMKLGQGLNKILKHFNIDFCLNC-OH; N-terminus and C-terminus assumed) here?
**A.** 4 hours

**Q.** What about the “Number of hours to cause a significant reduction in log CFU/mL of S. aureus ATCC (p < 0.05)” value ([1]; 2x MIC) of the same compound?
**A.** 2 hours

**Q.** What about the “Number of hours to cause a significant reduction in log CFU/mL of S. aureus ATCC (p < 0.05)” value ([1]; MIC) of the same compound?
**A.** 4 hours

**Q.** And the MIC [2]?
**A.** >16.6 µM

**Q.** What about the “MBC E. coli ATCC” value [3] of the same compound?
**A.** 8.3 (8.3)^8.3 µM

**Q.** And the “MIC E. coli ATCC” value [3]?
**A.** 8.3 (8.3)^8.3 µM

**Q.** And the “MIC in the presence of cations E. coli ATCC” value [3]?
**A.** 8.3 (8.3)^8.3 µM

**Q.** And the “MBC S. aureus” value [4]?
**A.** 4.1 µM (≈ 15.8 µg/mL)

**Q.** And the MIC ([4]; read-out: MIC S. aureus)?
**A.** 2 µM (≈ 7.68 µg/mL)

**Q.** What about the MIC ([4]; read-out: MIC in the presence of cations S. aureus) of the same compound?
**A.** 2 µM

**Q.** What about the MIC [5] of the same compound?
**A.** >16.6 µM

**Q.** What about the “MBC E. coli” value [6] of the same compound?
**A.** 16.6 (16.6)^>16.6 µM

**Q.** And the “MIC E. coli” value [6]?
**A.** 16.6 (16.6)^>16.6 µM

**Q.** What about the “MIC in the presence of cations E. coli” value [6] of the same compound?
**A.** 16.6 (16.6)^>16.6 µM

**Q.** What about the “MBC S. aureus ATCC” value [7] of the same compound?
**A.** 4.1 µM (≈ 15.8 µg/mL)

**Q.** And the MIC ([7]; read-out: MIC S. aureus ATCC)?
**A.** 2 µM (≈ 7.68 µg/mL)

**Q.** What about the MIC ([7]; read-out: MIC in the presence of cations S. aureus ATCC) of the same compound?
**A.** 2 µM

**Q.** What about the “MBC PRSA” value [8] of the same compound?
**A.** 2 µM (≈ 7.68 µg/mL)

**Q.** And the “MIC PRSA” value [8]?
**A.** 1 µM (≈ 3.84 µg/mL)

**Q.** What about the “MBC MRSA” value [9] of the same compound?
**A.** 4.1 µM (≈ 15.8 µg/mL)

**Q.** And the “MIC MRSA” value [9]?
**A.** 2 µM (≈ 7.68 µg/mL)

**Q.** What about the MIC [10] of the same compound?
**A.** >16.6 µM

**Q.** What about the MBC S. agalactiae [11] of the same compound?
**A.** 8.3 µM (≈ 31.9 µg/mL)

**Q.** What about the MIC S. agalactiae [11] of the same compound?
**A.** 8.3 µM (≈ 31.9 µg/mL)

**Q.** What about the MIC [12] of the same compound?
**A.** >16.6 µM

**Q.** Which “Antibacterial (MIC <64ug/mL)” value [13, 15] does the source give for “PGKRRGKLIKKGGKGVKRLLPKNGIIILPPG [MAP5, marsupial ancestral peptide, predicted by ANCESCON and GASP, synthesized]” here?
**A.** N (Antibacterial (MIC <64ug/mL))

**Q.** What about the “Antifungal (MIC <64ug/mL)” value [14, 16] of the same compound?
**A.** N (Antifungal (MIC <64ug/mL))

**Q.** How did the “Antibacterial (MIC <64ug/mL)” value [13, 15] turn out when “PKRKKGSKKRRFRPGGYTLIALGKPRVQKAPYMEAL [MAP3, marsupial ancestral peptide, likely linear, rich in arginine (32.2%) and proline (25.8%)]” was run?
**A.** N (Antibacterial (MIC <64ug/mL))

**Q.** What about the “Antifungal (MIC <64ug/mL)” value [14, 16] of the same compound?
**A.** N (Antifungal (MIC <64ug/mL))

**Q.** With RQIYDQAKYDILTGILRNF [BepeCath8] as the compound, how does the “Antibacterial (MIC <64ug/mL)” value [13, 15] read?
**A.** N (Antibacterial (MIC <64ug/mL))

**Q.** And the “Antifungal (MIC <64ug/mL)” value [14, 16]?
**A.** N (Antifungal (MIC <64ug/mL))

**Q.** “RQRRLPFLGDPRRFPRPRGRPQPDPRQGRPN [MAP4, marsupial ancestral peptide, predicted by ANCESCON and GASP, synthesized]” was tested. Which “Antibacterial (MIC <64ug/mL)” value [13, 15] did it give?
**A.** N (Antibacterial (MIC <64ug/mL))

**Q.** What about the “Antifungal (MIC <64ug/mL)” value [14, 16] of the same compound?
**A.** N (Antifungal (MIC <64ug/mL))

**Q.** Which “Antibacterial (MIC <64ug/mL)” value ([13]; broth microdilution screening, phase I or II, Y/N summary over the bacteria tested) does the source give for “RSKRSSSLEEIDIDSLPPKVKEIYYRGIDDAIGGILRNF [TrvuCath4]” here?
**A.** N (Antibacterial (MIC <64ug/mL))

**Q.** And the “Antifungal (MIC <64ug/mL)” value ([14]; broth microdilution screening, phase I, Y/N summary over the fungi tested)?
**A.** N (Antifungal (MIC <64ug/mL))

Source: PMC12006171, “Marsupial cathelicidins: characterization, antimicrobial activity and evolution in this unique mammalian lineage” (Frontiers in Immunology, 2025)
